Where “and” joins values, the source holds several entries; their conditions need not be identical. Equal values may be shown once. Read-outs that look alike come from different tables or passages of the source.
Columns and labels:
[1] = target: T1, human porphobilinogen synthase (HsPBGS) (Homo sapiens, UniProt P13716, C162A/K59N); assay: biochemical; type: biochemical
T1 sequence (P13716 1-330 K59N/C162A): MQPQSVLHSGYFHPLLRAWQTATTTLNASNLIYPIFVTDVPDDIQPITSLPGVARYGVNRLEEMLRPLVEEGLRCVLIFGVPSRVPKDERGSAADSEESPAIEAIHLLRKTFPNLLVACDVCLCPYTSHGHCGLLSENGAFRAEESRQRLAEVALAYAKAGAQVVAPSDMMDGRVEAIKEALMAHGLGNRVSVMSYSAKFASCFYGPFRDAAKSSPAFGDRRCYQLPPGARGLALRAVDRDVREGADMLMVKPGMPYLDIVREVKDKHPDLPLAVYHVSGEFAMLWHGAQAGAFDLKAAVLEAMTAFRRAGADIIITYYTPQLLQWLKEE

[2] = target: T2, HsPBGS oligomeric equilibrium (hexamer/octamer) (Homo sapiens, UniProt P13716, C162A/K59N); conditions: for Effect on HsPBGS oligomeric distribution, in words: native PAGE
T2 sequence (P13716 1-330 K59N/C162A): T1 sequence (P13716 1-330 K59N/C162A)

HsPBGS = conditions: Johns Hopkins Clinical Compounds Library, native PAGE; ref [15]; cited from earlier work
[3] = reagents compatible with the HsPBGS activity assay
[4] = target: T2, HsPBGS oligomeric equilibrium (hexamer/octamer); assay: Initial native PAGE screen of the NTP library; conditions: 2 mM compound, 40 °C 30 min
[5] = target: PBGS from Pseudomonas aeruginosa (Pseudomonas aeruginosa, UniProt Q59643); assay: Inhibition of PBGS from Pseudomonas aeruginosa; type: biochemical; conditions: data not shown
[6] = test system: PBGS from Yersinia enterocolitica; assay: Inhibition of PBGS from Yersinia enterocolitica; type: biochemical; conditions: data not shown
[7] = target: T3, PBGS from Pisum sativum (green pea) (Pisum sativum, UniProt P30124); assay: Inhibition of PBGS from Pisum sativum; type: biochemical; conditions: data not shown
T3 sequence (P30124 1-398): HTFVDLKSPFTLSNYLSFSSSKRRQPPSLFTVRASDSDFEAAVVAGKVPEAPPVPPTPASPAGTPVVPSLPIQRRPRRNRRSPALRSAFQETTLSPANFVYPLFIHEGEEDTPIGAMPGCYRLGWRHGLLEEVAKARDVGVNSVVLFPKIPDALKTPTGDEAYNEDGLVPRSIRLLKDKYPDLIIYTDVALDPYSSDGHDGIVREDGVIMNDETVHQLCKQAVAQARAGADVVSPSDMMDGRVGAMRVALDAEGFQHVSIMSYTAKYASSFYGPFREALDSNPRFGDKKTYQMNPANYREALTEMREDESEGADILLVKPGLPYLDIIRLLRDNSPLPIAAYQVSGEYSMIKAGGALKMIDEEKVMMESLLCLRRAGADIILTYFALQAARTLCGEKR

[8] = fit of the inhibition curve, 0 = hyperbolic decay to zero
[9] = preincubation 42 °C 1 h, 10 μg/mL HsPBGS, 10 mM substrate, final pH 7.8
[10] = at 2 mM compound (highest concentration, footnote d)
[11] = percentage of HsPBGS hexamer at 20 mM compound, 42 °C 1 h, no substrate
[12] = at 3 mM compound, sum of hexameric and dimeric bands (~2:1) (footnote f)

Sequence of PBGS from Pseudomonas aeruginosa (Q59643 whole entry): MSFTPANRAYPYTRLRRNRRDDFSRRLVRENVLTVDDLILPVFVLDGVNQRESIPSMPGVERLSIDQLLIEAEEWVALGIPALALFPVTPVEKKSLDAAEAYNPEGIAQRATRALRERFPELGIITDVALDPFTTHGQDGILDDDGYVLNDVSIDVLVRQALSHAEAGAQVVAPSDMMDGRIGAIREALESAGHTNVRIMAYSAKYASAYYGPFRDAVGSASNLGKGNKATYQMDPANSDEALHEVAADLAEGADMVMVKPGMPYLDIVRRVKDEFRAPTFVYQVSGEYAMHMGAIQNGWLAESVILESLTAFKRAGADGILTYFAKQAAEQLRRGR

Structure (SMILES)	FAmin (minimum fractional activity derived from the titration) [1, 8] [%]	IC50 [1, 9] [µM]	IC50 [1] [µM]	Mole Fraction Hexamer max (obsd) [2, 11] [%]	Result of initial screen (increase of mole fraction of hexamer) [4]	other results
N.N.[Cl][Pt][Cl] [cis-Dichlorodiamine platinum, (SP-4-2)-diamminedichloridoplatinum, reference compound]	0	17.1 ± 1.5	–	–	–	Mole Fraction Hexamer max (obsd) ([2]; at 1 mM compound (footnote e), higher concentrations precipitate HsPBGS): 53.0 ± 0.8 ^e %
O=C1[C@H]2CC=CC[C@H]2C(=O)N1SC(Cl)(Cl)Cl [Captan, (3aR,7aS)-2-[(trichloromethyl)sulfanyl]-3a,4,7,7a-tetrahydro-1H-isoindole-1,3(2H)-dione]	0	–	3 ± 0.3	–	–	Mole Fraction Hexamer max (obsd) [2, 10]: 72.3 ± 0.3% and 72.3 ± 0.2 ^d %
COC(=O)c1ccc(C=O)cc1 [Methyl-p-formyl benzoate]	0	40.3 ± 0.9	–	86.5 ± 1.4	–	–
NC(=O)NN=Cc1ccc([N+](=O)[O-])o1 [Nitrofurazone, 5-nitro-2-furaldehyde semicarbazone, reference compound]	0	–	–	–	–	Result of previous library screen (HsPBGS): identified as a hexamer-stabilizing HsPBGS inhibitor; Mole Fraction Hexamer max (obsd) [2, 10]: 48.5 ± 0.3 ^d %; Mole Fraction Hexamer max (obsd) ([2]; at 2 mM compound (highest concentration, footnote d), listed as nitrofurazone): 48.5 ± 0.3%
O=Cc1c(Cl)cccc1Cl [2,6-Dichlorobenzaldehyde]	–	–	15.2 ± 1.5	–	–	FAmin (minimum fractional activity derived from the titration) [1]: 0%; Mole Fraction Hexamer max (obsd) [2]: 100% and 100 ± 0%
[Cd+2].[O-2] [cadmium oxide]	–	–	–	–	preliminary hits	Solubility, in words [3]: insolubility in reagents compatible with the HsPBGS activity assay
CC1=C2[C@H](/C=C(\C)C(=O)O)CC[C@@H](C)[C@H]2CC1 [Valerenic acid, (2E)-3-[(4S,7R,7aR)-3,7-dimethyl-2,4,5,6,7,7a-hexahydro-1H-inden-4-yl]-2-methylacrylic acid]	33.2 ± 3.9	–	8.2 ± 1.7	64.1 ± 0.9	preliminary hits	–
O=Cc1ccc(Cl)cc1Cl [2,4-Dichlorobenzaldehyde]	–	–	107 ± 4	86.2 ± 0.7	preliminary hits	Inhibition of HsPBGS activity, in words [1]: very poor inhibitors of HsPBGS activity; Effect on HsPBGS oligomeric distribution, in words [2]: very effective at stabilizing the HsPBGS hexamer
O=[N+]([O-])c1cccc(CCl)c1 [m-Nitrobenzyl chloride]	0	27.1 ± 2.2	–	79.8 ± 1.3	–	–
O=Cc1ccc(Cl)c(Cl)c1 [3,4-Dichlorobenzaldehyde]	0	–	26.6 ± 2	30.4 ± 2.2	–	–
CC(=O)[O-].CC(=O)[O-].[Cd+2] [Cadmium acetate]	16.7 ± 4.0	3.6 ± 0.7	–	–	–	Mole Fraction Hexamer max (obsd) [2, 12]: 92.2 ± 0.6 ^f %
[Cl][Cd][Cl] [Cadmium chloride]	9.2 ± 4.5	6.9 ± 1.2	–	–	–	Mole Fraction Hexamer max (obsd) [2, 12]: 94.9 ± 3.3 ^f %
C=Cc1ccc(C=C)cc1 [p-divinyl benzene]	–	–	–	–	preliminary hits	Solubility, in words [3]: insolubility in reagents compatible with the HsPBGS activity assay
O=C1CN(/N=C/c2ccc([N+](=O)[O-])o2)C(=O)N1 [Nitrofurantoin, (E)-1-[(5-nitro-2-furyl)methylideneamino]imidazolidine-2,4-dione, reference compound]	–	–	5.9 ± 0.4	–	–	FAmin (minimum fractional activity derived from the titration) [1]: 0%; Result of previous library screen (HsPBGS): not identified as a hit
O=Cc1cccc(Br)c1 [3-Bromobenzaldehyde]	80.8 ± 1.2	–	21.5 ± 3.5	89.9 ± 3.4	preliminary hits	Inhibition of HsPBGS activity, in words [1]: very poor inhibitors of HsPBGS activity; Effect on HsPBGS oligomeric distribution, in words [2]: very effective at stabilizing the HsPBGS hexamer
O=Cc1ccccc1Cl [2-Chlorobenzaldehyde]	0	–	44.6 ± 4.9	91.8 ± 0.5	–	–
O=C/C=C/c1ccccc1 [trans-cinnamaldehyde]	–	–	–	–	preliminary hits	–
CNc1ccc(O)cc1.CNc1ccc(O)cc1.O=S(=O)(O)O [N-methyl-p-aminophenol sulfate]	0	13.7 ± 1.3	–	68.1 ± 0.9	–	–
c1cc(OCC2CO2)cc(OCC2CO2)c1 (stereo not drawn) [Diglycidyl resorcinol ether]	0	–	36.3 ± 2.4	87.4 ± 2.7	–	–
O=C1OC(O)C(C(Cl)Cl)=C1Cl (stereo not drawn) [Mutagen X, 3-chloro-4-(dichloromethyl)-5-hydroxy-2(5H-furanone)]	0	1.4 ± 0.1	–	–	–	Inhibition potency relative to HsPBGS, in words [5]: comparable potency; Effect on HsPBGS oligomeric distribution, in words [2]: increase the ratio of hexamer to octamer; Inhibition potency relative to HsPBGS, in words [6]: comparable potency; Inhibition potency relative to HsPBGS, in words [7]: comparable potency
